ChEMBL document CHEMBL1153294, “The use of oxadiazole and triazole substituted naphthyridines as HIV-1 integrase inhibitors. Part 1: Establishing the pharmacophore” (Bioorg Med Chem Lett, 2009)

Experiments:
[1] = test system: Human immunodeficiency virus; assay: Antiviral activity against HIV by pseudo-type HIV assay; type: functional, organism-based; settings: Human immunodeficiency virus 1
[2] = biological target: Human immunodeficiency virus type 1 integrase (Human immunodeficiency virus 1, UniProt Q7ZJM1); assay: Inhibition of HIV1 recombinant integrase strand transfer activity
Chain of Human immunodeficiency virus type 1 integrase (Q7ZJM1 whole entry): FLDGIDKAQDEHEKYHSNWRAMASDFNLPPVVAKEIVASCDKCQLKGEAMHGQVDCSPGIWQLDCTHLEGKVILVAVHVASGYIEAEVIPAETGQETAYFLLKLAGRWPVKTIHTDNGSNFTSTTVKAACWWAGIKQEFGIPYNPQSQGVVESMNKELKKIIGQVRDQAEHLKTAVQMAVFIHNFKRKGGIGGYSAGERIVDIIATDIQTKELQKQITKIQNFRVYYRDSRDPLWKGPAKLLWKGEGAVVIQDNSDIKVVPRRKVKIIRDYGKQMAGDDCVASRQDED

Row | Structure (SMILES) | EC50 [1] [nM] | IC50 [2] [nM]
1 | O=C(NCc1ccc(F)cc1)c1nc(N2CCCCS2(=O)=O)c2cccnc2c1O | 2 | 
2 | Oc1c(-c2nnc(Cc3ccccc3)[nH]2)ncc2cccnc12 | 8700 | 360
3 | Oc1c(-c2nnc(Cc3ccccc3)o2)ncc2cccnc12 | 420 | 130
4 | Oc1c(-c2nnc(Cc3ccc(Cl)cc3)[nH]2)ncc2cccnc12 | 1000 | 640
5 | Oc1c(-c2noc(Cc3ccc(F)cc3)n2)ncc2cccnc12 | 220 | 130
6 | Oc1c(-c2noc(Cc3ccccc3)n2)ncc2cccnc12 | 1900 | 950
7 | COc1ccc(Cc2nnc(-c3ncc4cccnc4c3O)[nH]2)cc1OC | > 35000 | 6300
8 | COc1cccc(Cc2nnc(-c3ncc4cccnc4c3O)[nH]2)c1 | > 35000 | 2800
9 | Oc1c(-c2noc(-c3ccccc3)n2)ncc2cccnc12 |  | > 100000
10 | Cn1nc(Cc2ccc(F)cc2)nc1-c1ncc2cccnc2c1O |  | > 500000
11 | O=S1(=O)CCCCN1c1nc(-c2noc(Cc3ccc(F)cc3)n2)c(O)c2ncccc12 |  | > 100000
12 | Oc1c(-c2nnc(CCc3ccccc3)[nH]2)ncc2cccnc12 | > 20000 | 2400
13 | Oc1c(-c2nnc(Cc3cccc(Cl)c3)[nH]2)ncc2cccnc12 | 1000 | 1030
14 | O=S1(=O)CCCCN1c1nc(-c2nnc(Cc3ccc(F)cc3)o2)c(O)c2ncccc12 | 13 | 2
15 | O=C(NCc1ccc(F)cc1)c1ncc2cccnc2c1O | 75 | 12
16 | Oc1c(-c2nnc(Cc3cccnc3)[nH]2)ncc2cccnc12 | 6400 | 3500
17 | Oc1c(-c2nnc(Cc3ccc(F)cc3)o2)ncc2cccnc12 | 130 | 42
18 | Oc1c(-c2nnc(Cc3ccncc3)[nH]2)ncc2cccnc12 | > 35000 | 4600
19 | Cn1nc(-c2ncc3cccnc3c2O)nc1Cc1ccc(F)cc1 |  | 7900
20 | O=S1(=O)CCCCN1c1nc(-c2nnc(Cc3ccc(F)cc3)[nH]2)c(O)c2ncccc12 | 240 | 11
21 | Oc1c(-c2nnc(Cc3ccc(F)cc3)[nH]2)ncc2cccnc12 | 320 | 130
